The values that follow come from a melting point compilation (Tetko et al.).

On to `Clc1ncccc1-c1ccc(Br)nc1`, for which the melting point (usually the temperature, or range, at which the solid turns liquid) amounted to 161 °C.

In the case of `CCN(CC)Cc1c(N)c2ccccc2oc1=O`, the melting point was 133 °C.

The molecule `O=[N+]([O-])c1ccc(Br)c([N+](=O)[O-])c1` had a melting point of 72 °C.

On to `c1ccc(-c2cccs2)cc1`, for which the melting point lay in the range of 34 to 36 °C.

`O=[N+]([O-])c1nc[nH]n1` showed a melting point of 212 to 214 °C.

Molecule `COC(=O)c1ccc(OC)cc1O` gave a melting point of 49 to 53 °C.

Turning to `CCN(CC)c1ccc(C=NN(c2ccccc2)c2ccccc2)cc1`, the melting point is 92 to 95 °C.

Take `Cc1ccc(N/N=C(/C(=O)c2cccc3ccccc23)S(=O)(=O)c2ccccc2)cc1`: the melting point fell in the range of 108 to 110 °C.

In turn, `CCc1cc(C(N)=S)ccn1` registered a melting point of 164 °C.

Turning to `Cc1cc(C(=O)O)c(-c2ccccc2)o1`, the melting point fell in the range of 145 to 147 °C.

Take `N#Cc1scc2c1OCCO2`: the melting point turned out to be 70 °C.

`CC(=O)N[C@H]1[C@H](OC(C)=O)O[C@H](COC(C)=O)[C@@H](OC(C)=O)[C@@H]1OC(C)=O` came in with a melting point of 186 to 189 °C.

In turn, `CN1CCC(CCCC2CCN(C)CC2)CC1` had a melting point of 13.7 °C.

Regarding `Clc1ccnc(Cl)n1`, the melting point was determined as 60 °C.

In turn, `CN(C)c1ccc(C(Br)=NNc2ccc([N+](=O)[O-])cc2)cc1` came in with a melting point of 188 °C.

`c1cc2c(cc1OC1OCC3C(c4ccc5c(c4)OCO5)OCC13)OCO2` (centres undefined) displayed a melting point of 93.5 °C.

The molecule `Nc1cc(C(F)(F)F)cc(Br)c1N` returned a melting point of 60 to 62 °C.

`CNC(=O)OCc1cccc(COC(=O)NC)n1` returned a melting point of 136 °C.

In turn, `CCCCC(C)C(C)C` (centres undefined) displayed a melting point of -116 °C.

The molecule `CC(=O)OC1CC2(O)C(C)C(=O)C3(C(O)CC4C(C)(C)CCC(OC(C)=O)C4(C)C13)C2O` (centres undefined) gave a melting point of 234 °C.

Turning to `O=C(O)CNC(=O)OCc1ccccc1`, the melting point came out at 121 °C.

Molecule `NNc1ccc(C(=O)O)cc1` showed a melting point of 205 °C.

On to `O=C(O)C=Cc1ccc(F)cc1`, for which the melting point is 207 to 210 °C.

`OCc1ccc(CN2CCOCC2)cc1` gave a melting point of 94 °C.

In turn, `O=C(CCl)Nc1ccc(Cl)cc1Cl` showed a melting point of 105 to 108 °C.

`Cc1c(C#N)cccc1C#N` registered a melting point of 136 °C.

Molecule `O=C(O)C12CC3CC(CC(Cl)(C3)C1)C2` came in with a melting point of 136 to 140 °C.

For the molecule `O=C(Cc1ccccc1)c1ccc(Br)cc1`, the melting point is 111 °C.

In turn, `CNC[C@H](O)[C@@H](O)[C@H](O)[C@H](O)CO` had a melting point of 128 °C.

In turn, `CC12CCC(CC1)C2(C)C` displayed a melting point of 158 °C.

`CCC1(c2ccccc2)C(=O)NCNC1=O` displayed a melting point of 281 °C.

`Cc1ccc2cc(N(C)C)ccc2n1` displayed a melting point of 101 °C.

With `Oc1ccnc(O)c1`, the melting point was 278 °C.

Turning to `COc1ccc(C(=O)C2=NN(c3ccccc3)C3C(=O)N(c4cc(Cl)ccc4Cl)C(=O)C23)cc1` (centres undefined), the melting point amounted to 240 °C.

On to `Cc1ccsc1C=CC1=NCCCN1C`, for which the melting point was 240 °C.

For `CNCc1ccc(-c2cccs2)nc1`, the melting point is 65.5 to 66.5 °C.

Take `ON=Cc1ccc[nH]1`: the melting point turned out to be 165 °C.

The molecule `CSc1ccc(C(F)(F)F)cc1[N+](=O)[O-]` gave a melting point of 94 to 96 °C.

Take `N=C(N)NC(=N)NCCc1ccccc1`: the melting point worked out at 176 °C.

As to `CCC(=O)c1ccco1`, the melting point was determined as 28 °C.

For the molecule `CN1CCN(CCCN2c3ccccc3Sc3ccc(Cl)cc32)CC1`, the melting point was determined as 228 °C.

For the molecule `CN(C)C(CSC(N)=O)CSC(N)=O`, the melting point is 188 °C.

As for `FC(F)(F)c1cnc(S)c(Cl)c1`, the melting point is 145 to 149 °C.

`Cc1ccc(-c2ccc(/C=C/C(=O)c3ccc(C)o3)o2)cc1`: the melting point worked out at 143 °C.

`C=CCl` registered a melting point of -154 °C.

Turning to `COc1ccc2cc(C(=O)c3ccccc3)c(=O)oc2c1`, the melting point was in the range of 150 to 153 °C.

`Cc1c(N(C)C)c(=O)n(-c2ccccc2)n1C` yielded a melting point of 134 °C.

The molecule `Nc1ccc(CO)cc1` registered a melting point of 61 °C.

The molecule `Oc1cccc2c(O)nccc12` showed a melting point of 270 to 275 °C.

For the molecule `Nc1c(S/C=C/Cl)ccc2c1C(=O)c1ccccc1C2=O`, the melting point was determined as 180 °C.

Molecule `O=C1NC(=O)C(Cl)C(=O)N1` gave a melting point of 320 °C.

`CN(C)c1ccc([N+]([O-])=CC(=O)c2ccc(C(=O)C=[N+]([O-])c3ccc(N(C)C)cc3)cc2)cc1` yielded a melting point of 132 to 134 °C.

In turn, `COc1ccc(C(=O)CC#N)cc1` had a melting point of 129 to 132 °C.

On to `CCCCN(CCCC)CCCN`, for which the melting point was -50 °C.

Molecule `O=C(CO)[C@@H](O)[C@H](O)[C@@H](O)CO` displayed a melting point of 165 °C.

On to `CC(=O)c1cc(F)cc(F)c1O`, for which the melting point was in the range of 109 to 110 °C.

`NCc1cc2ccccc2s1`: the melting point lay in the range of 58 to 59 °C.

With `CC(CCc1oc2ccc(Br)cc2c1-c1ccc(C)o1)=NO`, the melting point was 132 °C.

`O=C1Nc2c(C(=O)O)cccc2C1=O`: the melting point was in the range of 268 to 275 °C.

The molecule `O=C(O)c1ccc(CBr)c([N+](=O)[O-])c1` showed a melting point of 131 °C.

In turn, `CC(C)(O)CCCC1=CCC(C=O)CC1` (centres undefined) gave a melting point of -30 °C.

Turning to `O=C(NC(Cc1c[nH]c2ccccc12)C(=O)O)OCc1ccccc1` (centres undefined), the melting point was 124 °C.

Regarding `[O-][n+]1nc(-n2ccnc2)nc2ccc(Cl)cc21`, the melting point turned out to be 182 °C.

`CCN(CC)C(=O)c1ccccc1` gave a melting point of 30 °C.

As for `C=CCOC(Cn1ccnc1)c1ccc(Cl)cc1Cl` (centres undefined), the melting point is 52.7 °C.

As to `O=C(C(=O)C(Br)c1ccccc1)C(Br)c1ccccc1` (centres undefined), the melting point worked out at 124 °C.

Take `CCCS(=O)(=O)O`: the melting point was determined as 8 °C.

With `CCN1C(=O)CSC1=S`, the melting point turned out to be 38 °C.

Regarding `COC(=O)c1ccnc(N)c1`, the melting point is 147 °C.

For `Cc1ccc(Br)c(C)c1[N+](=O)[O-]`, the melting point stood at 70 °C.

As for `COc1ccc(Cn2ncc(Cl)c(Cl)c2=O)cc1`, the melting point lay within 117 to 120 °C.

Molecule `Fc1ccc(P(c2ccc(F)cc2)c2ccc(F)cc2)cc1` came in with a melting point of 80 °C.

Regarding `CN(C)c1ccc(C(c2ccc(N(C)C)cc2)c2ccc(N(C)C)cc2)cc1`, the melting point stood at 180 °C.

`O=C1NC(=S)NC(=O)C1=NNc1ccc(C(=O)O)cc1` had a melting point of 340 °C.

The molecule `Clc1cccc(Cl)c1-c1nnn[nH]1` registered a melting point of 203 °C.

In turn, `CCC(C)C(CC)C(N)=O` (centres undefined) returned a melting point of 114 °C.

As to `O=C(CCl)c1ccc(C(=O)CCl)cc1`, the melting point worked out at 153 °C.

Molecule `CC(C)(C)OC(=O)N[C@@H](CO)c1ccccc1` gave a melting point of 136 to 139 °C.

`Cc1ccc(C(N)=O)cc1C` showed a melting point of 107 to 109 °C.

Turning to `CCOC(=O)NNC(=O)Nc1ccc(Cl)cc1`, the melting point was determined as 194 °C.

With `COc1cccc2c1ccn2C`, the melting point is 89 to 91 °C.

`CC(CO)NC(=O)C1C=C2c3cccc4[nH]cc(c34)CC2N(C)C1` (centres undefined) came in with a melting point of 162 °C.

On to `NNc1ccc(F)c(Cl)c1`, for which the melting point was 74 °C.

In the case of `O=C1CSC(c2cccs2)C1` (centres undefined), the melting point fell in the range of 55 to 58 °C.

`O=C(O)C=Cc1ccco1` displayed a melting point of 143 °C.

In turn, `O=Cc1ccc(F)c(Br)c1` gave a melting point of 31 °C.

As for `CCCCCCCCC=CCCCCCCCC(=O)OCC(O)CO` (centres undefined), the melting point came to 35 °C.

`Cc1nc(-c2ccccc2)sc1C(=O)CBr` displayed a melting point of 117 to 118 °C.

`CCCCC=CCCCCCCCCOC(C)=O`: the melting point was determined as 1.3 °C.

For the molecule `CC12CCC(O)CC1CCC1C2C(O)CC2(C)C(c3ccc(=O)oc3)CCC12O` (centres undefined), the melting point stood at 254 °C.

Molecule `CCCCCCOc1ccc(N)cc1` returned a melting point of 44 °C.

`CCCCCCCCCCCC(=O)OCCOC(=O)CCCCCCCCCCC` yielded a melting point of 56.6 °C.

Take `CCn1cc(C(=O)O)c(=O)c2ccc(-c3ccncc3)cc21`: the melting point was determined as 290 °C.

Molecule `Cc1noc(-c2ccccc2Br)n1` gave a melting point of 43 to 44 °C.

The molecule `CC(=O)C1(O)CCC2C3CCC4=CC(=O)CCC4(C)C3CCC21C` (centres undefined) returned a melting point of 222 °C.

The molecule `O=[N+]([O-])c1cc(-c2ccccc2)ccc1O` registered a melting point of 67 °C.

As for `c1ccc2c(c1)CC1c3ccccc3CCN1C2` (centres undefined), the melting point was found to be 85 °C.

On to `NC(=S)NN=C1C(=O)Nc2ccccc21`, for which the melting point was 232 °C.

In turn, `OCc1ccc2sccc2c1` yielded a melting point of 91 to 92 °C.

`O=C(Cl)c1csc(-c2cccc(Cl)c2)n1` returned a melting point of 85 to 87 °C.

In turn, `O=C(OCc1ccc(Cl)cc1)c1cnc(Cl)nc1C(F)(F)F` showed a melting point of 69 to 71 °C.

In turn, `CCCC(C)CC` (centres undefined) had a melting point of -119 °C.

`Fc1cccc(Cl)c1C(Cl)(Cl)Cl` displayed a melting point of 38 to 43 °C.

Molecule `C=CN1C(=O)c2ccccc2C1=O` came in with a melting point of 86 °C.

Consider `O=C(O)c1csnn1`, for which the melting point was in the range of 233 to 235 °C.

Consider `NCc1cc(-c2ccco2)on1`, for which the melting point was in the range of 46 to 49 °C.

The molecule `N#CCc1c(F)cccc1Cl` returned a melting point of 42 °C.

`O=C1NC2NC(=O)NC2N1` (centres undefined) had a melting point of 300 °C.

For the molecule `C1CCN(C2CCNCC2)CC1`, the melting point turned out to be 68 °C.

With `Cc1cccc(C(O)c2ccccc2)c1` (centres undefined), the melting point worked out at 53 °C.

Regarding `Cc1cc(C)n(CN(CCO)Cn2nc(C)cc2C)n1`, the melting point fell in the range of 82 to 84 °C.

`COc1ccc(C(=O)c2noc(-c3ccc(C)cc3)c2S(=O)(=O)c2ccccc2)cc1` returned a melting point of 156 °C.

On to `O=C1/C(=C/c2ccc([N+](=O)[O-])cc2)SC(=S)N1CNc1ccc([N+](=O)[O-])cc1`, for which the melting point was 189 °C.

Molecule `O=C(Cl)c1cc([N+](=O)[O-])cc([N+](=O)[O-])c1` came in with a melting point of 74 °C.
